Reference: a melting point compilation (Tetko et al.; mined from patent text by program, amines drawn as free bases though some values may be those of a salt)

SMILES | melting point [°C]
N#Cc1cc(-c2ccc(Cl)c(Cl)c2)[nH]c1Br | > 200
COc1ccnc(CCc2nc3cc(-c4ccc5[nH]ccc5c4)cnc3[nH]2)c1 | 241 to 242
COc1ccc(Oc2ccccc2NS(C)(=O)=O)cc1 | 81 to 83
CCc1noc(-c2cn(-c3ccc4c(c3)OCO4)cn2)n1 | 173 to 174
N#Cc1nn(-c2c(Cl)cc(C(F)(F)F)cc2Cl)c(N)c1-c1cccc(Cl)c1 | 161 to 162
CCCn1cc2c(C3C(=O)Nc4ccc(Br)cc43)nc(NCc3ccncc3)nc2n1 (stereo not drawn) | > 300
NCc1cccc(OCCC(=O)O)c1 | 134 to 138
COc1ccc2c(=O)c3c(OC)cccc3oc2c1OC | 145 to 146
Brc1ccc2c(c1)COCc1cc(Br)ccc1-2 | 129 to 131
COc1cc(C(=O)c2nc(C(=O)O)c3ccccn23)ccc1N | 226
C#Cc1cc(-c2cccs2)c(OC)cc1OC | 141 to 142
NC(=O)C1(Nc2ccccc2)CCN([C@H]2CCc3ccccc32)CC1 | 194 to 195
CCN(CC)C(=O)c1cc2ccccc2c(-c2cccc(F)c2)n1 | 92
Fc1ccc(C#Cc2ccc(F)cc2)cc1 | 95 to 96
CCCCCCc1ccc(C(=O)CCCCC(=O)O)cc1 | 77 to 79
CCOc1cc(=O)oc2cc(CBr)ccc12 | 150 to 153
O=C1CCC(=O)N1Cc1nc2sc3c(c2c(-c2ccc(Cl)cc2)c1Cl)CCN(Cc1ccccc1)C3 | 254 to 255
FC(F)(F)COc1ccc(-c2cc(C(F)(F)F)n3cnc(-c4ccncc4)c3n2)cc1C(F)(F)F | 269
CC(=O)NCc1cccc(Nc2nccc(-c3sc(C)nc3C)n2)c1 | 206 to 207
Nc1cc(OCc2ccccc2)ccc1C=C(Br)Br | 93 to 94
CCCN(c1ccncc1F)n1c(C)cc2ccccc21 | 5
Clc1ccc(Oc2ccccc2Oc2ccc(Cl)cn2)nc1 | 82 to 84

SMILES | melting point [°C]
CCCCCCCCCCc1ccc(C(=O)O[C@@H]2CC[C@H](NC(=O)[C@H](OC)[C@H](O)[C@@H](O)[C@H](O)/C=C/C(C)(C)C)C(=O)NC2)cc1 | 60 to 64
COc1ccc(CCNC(=S)c2ccccc2C)cc1OC | 94 to 95
CCC1(c2cccc([N+](=O)[O-])c2)C(=O)NC(=O)NC1=O | 283 to 284
OC(c1cccc(-c2nnc(Nc3ccc(Cl)c(Cl)c3)s2)c1)c1cccc(C(F)(F)F)c1 (stereo not drawn) | 191 to 192
COC(=O)c1cc(-c2ccc(OC)c(OC)c2)nc2ccc(Br)cc12 | 154
CC(C)(C)CN1C(=O)CC(=O)N(c2ccccc2Cl)c2cc(Cl)ccc21 | 245 to 246
CS(=O)(=O)c1ccc(/C(=C2\N=C(c3ccccc3)OC2=O)c2ccc(Cl)cc2)cc1 | 226
COc1ccc(CC(=O)Nc2cc(-c3c(-c4cccc(C)c4)nc4cccnn34)ccn2)cc1 | 213 to 214
Fc1ccc(Nc2ncnc3cnc(NC4CCCNC4)nc23)cc1Cl (stereo not drawn) | 194 to 199
CN(C(=O)CN(C(=O)CNC(=O)Nc1cccc(Cc2nnn[nH]2)c1)c1ccccc1)c1ccccc1 | 206
CC(C)(C)c1nc(-c2nn(-c3ccc(F)cc3F)c3c2C2CCC3C2)n[nH]1 (stereo not drawn) | 268 to 269
Cc1cc(-c2cc(C(F)(F)F)n3ncc(-c4nc(-c5ccnc(N)c5)no4)c3n2)ccc1C(F)(F)F | 245
OCCCc1cccc2ccncc12 | 66 to 69
CN1C(=O)C(=CN2CCOCC2)N=C(c2ccccc2Cl)c2cc(F)ccc21 | 110 to 115
O=C(CN1CC=C(c2c[nH]c3cc(Cl)ccc23)CC1)Nc1ccccn1 | 202 to 204
CCOC(=O)c1c(-c2cccc(Cl)c2)c2cc(C(=O)c3nc(-c4ccccc4)cs3)ccc2[nH]c1=O | 261
O=C1CC2(CC(=O)O1)c1ccccc1Oc1ccccc12 | 188 to 190
O=C(C(=O)c1ccc(C#Cc2ccccc2)cc1)c1ccc(C#Cc2ccccc2)cc1 | 168 to 170
CN(c1cccc(-c2ccnc3c(C#N)cnn23)c1)S(C)(=O)=O | 193 to 195
COc1ccc(CNS(=O)(=O)Cc2ccc3[nH]cc(CC#N)c3c2)cc1 | 144 to 145
O=C1c2ccccc2C(=O)N1Cc1noc(CCl)n1 | 96.5 to 98

Now from value to compound:

melting point [°C] | SMILES
66 to 67 | Clc1nc(NC2CC2)nc(C2CC2)n1
83 to 85 | Nc1sc2c(c1C(=O)c1ccc(-c3ccccc3)cc1)CCN(C(=O)OCc1ccccc1)C2
255 to 258 | CC1(C)Oc2ccc(C#N)cc2[C@@H](NC2=C(C=O)C(=O)CC2)[C@@H]1O (relative stereo)
145 to 148 | CCC(=O)N(CC)c1cccc(-c2ccc3nnc(C)n3n2)c1
48 to 49 | CCCCCCCCCCCCCCCCCCOCC(CO)OC(=O)N1CCOCC1 (stereo not drawn)
170 to 172 | Cc1[nH]c2ccc(CCO)cc2c1C(=O)OCc1ccccc1
123 to 125 | CC(C)(C)OC(=O)N[C@@H](CC1CCCCC1)[C@@H]1C[C@@H](C(C)(C)O)C(=O)O1
96 to 98 | N[C@@H]1C[C@H](C2CCCCC2)c2ccccc2NC1=O (relative stereo)
210 to 213 | CC(=O)Oc1ccc(C=CC(=O)O)cc1Cl
235 to 236 | O=C1CSC(C(=O)Nc2ccc(Cl)cc2)Cc2ccc(Cl)cc21 (stereo not drawn)
53 to 57 | CC(NC(=O)C(C)(Cc1c[nH]c2ccccc12)NCc1cc2ccccc2o1)c1ccn(C)c1 (stereo not drawn)
133 | Cc1cccc(CCC(O)(P(=O)(O)O)P(=O)(O)O)c1N
90 to 92 | CCN1C(C)=CC(=O)CS1(=O)=O
160 to 161 | COc1ccc(S(=O)(=O)Nc2ccccc2NC(C)=O)cc1
98 to 101 | CC(C)c1ccccc1N1C(=O)CON(C)C1=S
143 | CC1(C)CC(C)(C)c2cc(CC(=O)O)ccc21
200 | CCc1nc2c(o1)C(=O)C=C(Nc1ccccc1)C2=O
214 to 216 | COc1ccccc1NC(=O)NCc1cccc2c1C(=O)N(C1CCC(=O)NC1=O)C2=O (stereo not drawn)
133 to 138 | CCOC1CN(CC=CC(=O)Nc2cc3c(Nc4cccc(Br)c4)ncnc3cc2OC)CC(OCC)O1 (stereo not drawn)
152 to 154 | COC(=O)C(CCSC)NC(=O)c1ccc(CS(=O)(=O)c2cccnc2)cc1-c1ccccc1 (stereo not drawn)
210 to 211 | CC(C)C(=O)OCC(=O)C12OC(C3CCCCC3)OC1CC1C3CCC4=CC(=O)C=CC4(C)C3C(O)CC12C (stereo not drawn)
249 to 250 | CC1(C)Oc2cc([N+](=O)[O-])ccc2[C@@H](N2Cc3ccccc3C2=O)[C@@H]1O (relative stereo)
101 to 102 | CCCCC(=O)Nc1cccc(C(=O)OC)c1
83 to 84.5 | COC(=O)c1c(C(F)F)nc(C(F)(F)F)c(C(=O)OC)c1O
118 to 119 | CCOC(=O)c1ccc2c(c1)OC(CCCBr)C(=O)N2 (stereo not drawn)
237 | CC(C)NC(=O)N1CCc2[nH]cnc2C1c1cccnc1 (stereo not drawn)
115 to 120 | O=CCCNC(=O)CN1CCN(CC(=O)O)CCN(CC(=O)O)CCN(CC(=O)O)CC1
88 | Cc1cc(-n2ccnc2)c2cccc(OCc3c(Cl)ccc(S(=O)(=O)N4CCC[C@H]4C(=O)N4CCN(c5ccccc5)CC4)c3Cl)c2n1

melting point [°C] | SMILES
177 to 179 | Cc1nc2cccc(OCC(C)(C)C(=O)NCC3CC3)c2c(N)c1C(=O)O
121 to 123 | O=C(CCCCN1CCN(c2cccc(Cl)c2Cl)CC1)N1CCc2ccccc21
153 to 154 | O=C1N=C(N2CCCC2)SC1Cc1cccc(-c2ccc(O)c(C34CC5CC(CC(C5)C3)C4)c2)c1 (stereo not drawn)
117 to 120 | COC(=O)C(C(=O)OC)C(Cc1cc(Cl)ccc1[N+](=O)[O-])c1ccc(OC)cc1 (stereo not drawn)
106 to 110 | CONc1nc(N)nc2c1ncn2[C@@H]1C[C@H](CO)[C@@H](O)[C@H]1O
138 to 140 | Cc1nc(N2CCN(Cc3ccccc3C(F)(F)F)C2=O)sc1C(=O)NCc1ccccc1
166 to 168 | COc1ccc(CNc2nc(N(C)CCO)ncc2C(=O)c2cc(OC)c(OC)c(OC)c2)cc1Cl
116 | CC12CCC(C(=Cc3ccc(C=O)cc3)C1=O)C2(C)C (stereo not drawn)
135 to 137 | O=C(O)Cc1ccc2c(c1)CCc1ccccc1O2
99 to 100 | CCCc1cc(Cl)c(O)c2c(C)c(Cc3ccc(OC)cc3)oc12
179 to 181 | CCCCc1oc2ccccc2c1C(=O)Nc1ccc2c(Br)c(OCC(=O)OC)ccc2c1
232 | COc1ccc(-c2nc(N)ncc2-c2ccc(=O)n(C)n2)cc1OC
108 to 110 | CCC1(c2cccc(S(=O)(=O)c3ccc(C(C)(C)C)cc3)c2)COC(C)(C)O1 (stereo not drawn)
84 to 86 | CCOC(=O)Cc1cc(C)c(C(=O)c2ccc(F)cc2)n1C
106 to 107 | CC(C)(C)C(=O)NC1CCCNC(=O)C1 (stereo not drawn)
232 to 234 | NC1([C@@H]2CCN(c3nc4c(cc3F)c(=O)c(C(=O)O)cn4[C@@H]3C[C@@H]3F)C2)CC1
96 to 97 | CN1CCC(Cc2cc3cccnc3[nH]2)C1 (stereo not drawn)
174 to 175 | CNC(=O)Cc1cc(=O)oc2cc(OCc3cccc(Cl)c3)ccc12
181 to 182 | Cc1ccc(N2CCOCC2)c(NC(N)=S)c1
178 to 180 | O=C(c1ccc(F)cc1)C1CCN(CCN(C(=O)c2ccc([N+](=O)[O-])cc2)c2ccccc2)CC1
103 to 104 | CS(=O)(=O)c1ccc(C2=C(Br)CCC2)cc1
98 to 100 | CCC(CC)Nc1cc(C)nc(Oc2c(C)cccc2C)c1N
161 to 162 | CCn1nc(-c2cccs2)c(C(=O)OCCOC(C)=O)c(Nc2cnccc2C)c1=O
134 to 137 | COC(=O)CCn1c(C)c(Cn2ccnc2)c2cc(CCC(=O)O)ccc21
135 to 140 | CC1=NOC(c2c(S(C)(=O)=O)ccc(C(=O)C3=C(O)CCCC3=O)c2C)C1 (stereo not drawn)
80 to 81 | N[C@@H](C1CCCCC1)C(O)(Cc1ccccc1)Cc1ccccc1
196 to 198 | CCCc1nc2c(c(C)c(C)n3nnnc23)n1CC(C)(C)NC(=O)NC1CCCCC1
